Assay in data set [1]: not given
This is another data set of the same source.

Where a name gives a salt, the structure may show the parent alone. ± gives the standard deviation of the reports.

`*Oc1c(F)c(F)c(Oc2c(F)c(F)c3c(c2F)C(=O)N(c2c(F)c(F)c(F)c(N4C(=O)c5c(F)c(*)c(F)c(F)c5C4=O)c2F)C3=O)c(F)c1F` (repeat unit) returned a glass transition temperature of 309.00 °C.

In the case of `*Oc1c(F)c(F)c(Oc2c(F)c(F)c3c(c2F)C(=O)N(c2c(F)c(F)c(Oc4c(F)c(F)c(N5C(=O)c6c(F)c(*)c(F)c(F)c6C5=O)c(F)c4F)c(F)c2F)C3=O)c(F)c1F` (repeat unit), the glass transition temperature was found to be 300.00 °C.

Turning to `*Oc1c(F)c(F)c(Oc2c(F)c(F)c3c(c2F)C(=O)N(c2c(F)c(F)c(Sc4c(F)c(F)c(N5C(=O)c6c(F)c(*)c(F)c(F)c6C5=O)c(F)c4F)c(F)c2F)C3=O)c(F)c1F` (repeat unit), the glass transition temperature turned out to be 278.00 °C.

In turn, `*Oc1ccc2c(c1)C(=O)N(c1ccc(C(=O)c3ccc(N4C(=O)c5ccc(*)cc5C4=O)cc3)cc1)C2=O` (repeat unit) registered a glass transition temperature of 274.00 °C.

In turn, `*c1ccc(Cc2ccc(-n3c(=O)c4cc5c(=O)n(*)c(=O)c5cc4c3=O)c(C)c2)cc1C` (repeat unit) registered a glass transition temperature of 274.00 °C.

With `*CCOC(=O)CCCCCCCCC(=O)O*` (repeat unit) [Poly(ethylene sebacate)], in data set [1], the glass transition temperature is -29.6 ± 3.9 °C.

`*CCS*` (repeat unit) [Poly(ethylene sulfide)] came in with a glass transition temperature in data set [1] of -25.83 ± 34 °C.

`*CC(*)CCCCCC` (repeat unit) [Poly(hexylethylene)] returned a glass transition temperature in data set [1] of -54.58 ± 0.8 °C.

For `*CC(*)(C)C(=O)OC(C)C` (repeat unit) [Poly(isopropyl methacrylate)], the glass transition temperature in data set [1] came out at 83.92 ± 1.5 °C.

With `*CC(*)C(C)C` (repeat unit) [Poly(isopropylethylene)], the glass transition temperature in data set [1] was 49 ± 18 °C.

On to `*CC(*)c1cccc(C)c1` (repeat unit) [Poly(m-methyl styrene) ], for which the glass transition temperature in data set [1] was determined as 95 ± 11 °C.

`*CC(*)(C)C#N` (repeat unit) [Poly(methacrylonitrile)]: the glass transition temperature in data set [1] is 101.67 ± 19 °C.

Turning to `*CC(*)C(=O)OCCC` (repeat unit) [Poly(n-propyl acrylate) ], in data set [1], the glass transition temperature is -41.33 ± 4 °C.

The compound `*CC(*)c1ccccn1` (repeat unit) [Poly(o-vinyl pyridine) ] registered a glass transition temperature in data set [1] of 104 ± 1.1 °C.

In data set [1], `*Oc1ccc(C(*)=O)cc1` (repeat unit) [Poly(p-hydroxybenzoate)] came in with a glass transition temperature of 147 ± 8.5 °C.

On to `*CC(*)c1ccc(COC)cc1` (repeat unit) [Poly(p-methoxymethyl styrene)], for which the glass transition temperature in data set [1] was determined as 77 ± 0.6 °C.

Consider `*CC(*)c1ccc(OCCCC)cc1` (repeat unit) [Poly(p-n-butoxy styrene) ], for which the glass transition temperature in data set [1] came out at 47 ± 3.3 °C.

`*CC(*)c1ccc(CCCC)cc1` (repeat unit) [Poly(p-n-butyl styrene) ]: in data set [1], the glass transition temperature is 6 ± 0.6 °C.

`*CC(*)c1ccc(OCCC)cc1` (repeat unit) [Poly(p-n-propoxy styrene)]: the glass transition temperature in data set [1] was determined as 70 ± 3.5 °C.

Regarding `*CC(*)c1ccc(COCCC)cc1` (repeat unit) [Poly(p-n-propoxymethyl styrene) ], the glass transition temperature in data set [1] is 22 ± 1.2 °C.

On to `*CC(*)c1ccc(-c2ccccc2)cc1` (repeat unit) [Poly(p-phenyl styrene) ], for which, in data set [1], the glass transition temperature was 138 ± 14 °C.

With `*/C=C/c1ccc(*)cc1` (repeat unit) [Poly(p-phenylenevinylene)s], the glass transition temperature in data set [1] is 137.42 ± 150 °C.

On to `*CC(*)c1ccncc1` (repeat unit) [Poly(p-vinyl pyridine) ], for which, in data set [1], the glass transition temperature is 142 ± 5.4 °C.

In turn, `*CC(*)CCCCC` (repeat unit) [Poly(pentylethylene)] returned a glass transition temperature in data set [1] of -44.33 ± 1.7 °C.

In turn, `*CCC(=O)N*` (repeat unit) [Poly(propano-3-lactam)] came in with a glass transition temperature in data set [1] of 128.17 ± 24 °C.

In the case of `*CC(C)S*` (repeat unit) [Poly(propylene sulfide) ], the glass transition temperature in data set [1] is -47 ± 2.7 °C.

In turn, `*CC(*)C` (repeat unit) [Poly(propylene)] gave a glass transition temperature in data set [1] of -24.6 ± 21 °C.

In data set [1], `*CC(*)C(=O)OC(C)CC` (repeat unit) [Poly(sec-butyl acrylate)] yielded a glass transition temperature of -20 ± 1.8 °C.

The compound `*CC(*)C(=O)OC(C)(C)C` (repeat unit) [Poly(t-butyl acrylate)] returned a glass transition temperature in data set [1] of 41 ± 0.9 °C.

`*CC(*)(C)C(=O)OC(C)(C)C` (repeat unit) [Poly(t-butyl methacrylate) ]: in data set [1], the glass transition temperature was 107 ± 0.6 °C.

`*CC(*)C(=O)OCCCC` (repeat unit) [Poly(tert-butyl acrylate)] showed a glass transition temperature in data set [1] of -51.58 ± 45 °C.

In turn, `*C(*)(F)F` (repeat unit) [Poly(tetrafluoroethylene)] gave a glass transition temperature in data set [1] of 118.42 ± 2.2 °C.

Compound `*CC1CC(*)OC(CCC)O1` (repeat unit) [Poly(vinyl butyral)] came in with a glass transition temperature in data set [1] of 54.42 ± 9.2 °C.

`*CC1CC(*)OCO1` (repeat unit) [Poly(vinyl formal) ]: the glass transition temperature in data set [1] stood at 104 ± 21 °C.

As for `*CC(*)OC=O` (repeat unit) [Poly(vinyl formate)], in data set [1], the glass transition temperature came to 32.4 ± 3.6 °C.

In data set [1], `*CC(*)OC(=O)CC` (repeat unit) [Poly(vinyl propionate) ] registered a glass transition temperature of 10 ± 2 °C.

In turn, `*Oc1ccc(C(CCC)c2ccc(OC(*)=O)cc2)cc1` (repeat unit) [Poly[1,1-butane bis(4-phenyl)carbonate] ] came in with a glass transition temperature in data set [1] of 123 ± 0.6 °C.

In data set [1], `*CC(*)C(F)(F)C(F)(F)C(F)(F)F` (repeat unit) [Poly[(heptafluoropropyl)ethylene] ] gave a glass transition temperature of 58 ± 0.6 °C.

`*Sc1ccc(*)cc1` (repeat unit) [Poly[thio(p-phenylene)] ] had a glass transition temperature in data set [1] of 87 ± 2.2 °C.

With `*CC/C=C(/*)C` (repeat unit) [Polyisoprene (cis)], the glass transition temperature in data set [1] was -67.00 ± 7 °C.

The compound `*CCN*` (repeat unit) [poly(2-oxazoline)s] showed a glass transition temperature in data set [1] of -35.77 ± 17 °C.

The compound `*CC(COCC=C)O*` (repeat unit) [poly(allyl glycidyl ether)] showed a glass transition temperature in data set [1] of -35.33 ± 57 °C.

Compound `*CC(*)(C)c1ccccc1` (repeat unit) [poly(alpha-methylstyrene)] displayed a glass transition temperature in data set [1] of 168.00 ± 140 °C.

As to `*CC(*)(C)C(=O)OCCCC` (repeat unit) [poly(butyl methacrylate)], the glass transition temperature in data set [1] was found to be 22.42 ± 6.3 °C.

`*c1ccc(-c2nc3cc(-c4ccc5nc(-c6ccccc6)c(*)nc5c4)ccc3nc2-c2ccccc2)cc1` (repeat unit) [poly(phenylquinoxaline)] came in with a glass transition temperature in data set [1] of 367.43 ± 3.4 °C.

In the case of `*CC(*)C1CCCCC1` (repeat unit) [poly(vinylcyclohexane)], in data set [1], the glass transition temperature was determined as 104.78 ± 28 °C.

The values above are taken from the PolyMetriX glass transition set.
